Laboratory results: patent US20260144796A1, “Compounds and Methods for Improving Health” (Acurx Pharmaceuticals, Inc., priority 2022, published 2026)
In brackets after ≈: the same amount, converted by molar mass. Entries after “also recorded” stand apart in the source; their conditions may differ. Read-outs that look alike come from different tables or passages of the source.

Tests used:
[1] = tested on: Lachnoclostridium pacaense; assay: MIC determination, stool Firmicute isolates; format: cell-based; conditions: Clostridium pacaense, N=1
Clostridium subterminale = assay: MIC determination, stool Firmicute isolates; format: cell-based; conditions: N=1
[2] = tested on: C. difficile CD 630 and R20291 cell morphology; assay: Morphology assessment by bright field microscopy; format: cell-based; conditions: sub-inhibitory to MIC, 24 hours, listed as IBZ
Experimental: Cultures were then incubated in an anaerobic chamber at 37° C. in for 24 hrs. Pre-cultures were diluted to approximately 10^6CFU/mL (1:100) in fresh BHI comprising 0.25×MIC (0.5 ug/mL) of the appropriate antibiotic. Following incubation for 24 hrs, EVOS imaging system (Thermofisher) was used to take bright field pictures at 40× magnification.

Enterococcus avium = assay: MIC determination, stool Firmicute isolates; format: cell-based
From the text: (§1) Fecal samples homogenized in reduced PBS (0.1 g stool/ml PBS) and serially diluted and plated directly onto YCFA7 agar supplemented with 0.002 g/ml each of glucose, maltose and cellobiose in large (13.5 cm diameter) petri dishes. Isolated colonies were identified by PCR amplification of the full-length 16S rRNA gene (using 7F (5′-[…]-3′) forward primer and 1510R (5′-[…]-3′) reverse primer followed by Sanger sequencing. Full-length 16S rRNA gene sequence reads were aligned using CLC Genomics (Qiagen) using the Ribosomal Database Project (RDP) as reference to classify reads to Operational Taxonomic Units (OTUs). The full-length 16S rRNA gene sequence of each species-level OTU was compared to the Ribosomal Database Project (RDP) reference database to assign taxonomic designations to the genus level and a BLAST search performed to identify any candidate novel species.
(§2) Strains plated onto blood agar (Hardy Diagnostics) with a 24-hour incubation at 37° C. in an anaerobic environment (Coy vinyl anaerobic chamber). After incubation, 3-5 well-isolated colonies were suspended into 5 mL of BHI broth (Criterion Media). The cultures were incubated in an anaerobic chamber for 24 hours to achieve a 0.5 McFarland Standard. Brucella agar with 5% hemin (5 ug/mL) (Sigma), vitamin K (10 ug/mL), and defibrinated sheep blood (Northeast Lab Services). The supplemented brucella agar was then utilized for two-fold serial dilution to create plates with IBZ concentration of 0.5 to 16 μg/mL plates. Plates were allowed to dry in a sterile location. After drying, the plates were covered with foil to prevent any photo-damage to the hemin and placed in the anaerobic chamber for 1 hour to reduce the media. The broth culture was then spotted onto the plates and covered with foil. Plates were allowed to dry completely before inverting them for incubation for 48 hours. Plates were analyzed and MIC recorded.

Enterococcus mundtii = assay: MIC determination, stool Firmicute isolates; format: cell-based; conditions: N=1
From the text: as §1, §2

Blautia sp. = assay: MIC determination, stool Firmicute isolates; format: cell-based; conditions: N=1
From the text: as §1, §2

[3] = tested on: C. difficile toxin A and B; assay: Toxin production by ELISA; format: cell-based; conditions: for reduction of toxin levels (toxin A and B), normalized to controls: sub-inhibitory concentrations, 24 h
Experimental: Toxin production was assessed by ELISA (tgcBiomics) according to the manufacturer instructions.

[4] = tested on: representative Actinobacteria (Bifidobacteriaceae and Coriobacteriaceae); assay: MIC, isolated gut microbiota species: Actinobacteria; format: cell-based; conditions: inactive
Experimental: as §2, with “Brucella agar with 5% hemin (5 ug/mL) (Sigma), vitamin K (10 ug/mL), and defibrinated sheep blood (Northeast Lab Services). The supplemented brucella agar was then utilized for two-fold serial dilution to create plates with IBZ concentration of 0.5 to 16 μg/mL plates.” left out

Dorea longicatena = assay: MIC determination, stool Firmicute isolates; format: cell-based; conditions: N=1
[5] = tested on: flagellar genes fliA, flgB, fliC in C. difficile strain CD 630; assay: Flagellar gene expression by qRT-PCR
[6] = tested on: C. difficile biofilms (strains R20291, CD 630); assay: C. difficile in vitro biofilm studies (MIC, MBIC, CFU/mL, Crystal Violet biomass); format: cell-based
Experimental: A basic flow chart outlining the experimental procedure used in these studies may be seen in FIG. 14. Briefly, C. difficile laboratory strain R20291 was grown in Brain heart infusion-supplemented (BHIS) medium. […] Biofilm formation was established via anaerobic incubation of the cultures at 37° C. for 24 hrs. Early biofilm formation was established at 4 hrs, whereas late biofilm formation was established at 24 hrs, 48 hrs, and 72 hrs. Following biofilm formation, the BHIS medium was removed and replaced with fresh media comprising no antibiotic (control), ibezapolstat (IBZ), Fidaxomicin (FDX), or metronidazole (MTZ). The cultures were then anaerobically incubated for 24 hrs or subjected to time course tests. Biofilm biomass was measured using Crystal Violet staining. […] Data was measured and recorded using Cytation 3 calibrated to read at A570. Data was analyzed by comparing percent growth of antibiotic treated cultures with controls.

Longibaculum sp. = assay: MIC determination, stool Firmicute isolates; format: cell-based; conditions: N=1

## O=c1[nH]c(NCc2ccc(Cl)c(Cl)c2)nc2ncn(CCN3CCOCC3)c12 [Ibezapolstat, 2-((3,4-dichlorobenzyl)amino)-7-(2-morpholinoethyl)-1,7-dihydro-6H-purin-6-one]
[1]
  MIC50: 25 µg/mL (≈ 59.1 µM)
Clostridium subterminale
  MIC50: 1 µg/mL (≈ 2.36 µM)
[2]
  cell morphology: elongated cell phenotype; also recorded: dose-dependent effect on C. difficile cell length
Enterococcus avium; N=2
  MIC50: 12.5 µg/mL (≈ 29.5 µM)
Enterococcus avium; N=2, read-out: MIC Max
  MIC: 12.5 µg/mL (≈ 29.5 µM)
Enterococcus avium; N=2, read-out: MIC Min
  MIC: 12.5 µg/mL (≈ 29.5 µM)
Enterococcus mundtii
  MIC50: 12.5 µg/mL (≈ 29.5 µM)
Blautia sp.
  MIC50: 12.5 µg/mL (≈ 29.5 µM)
[3]; strain CD 630, 24 hours of treatment
  total toxin A and B production: decreases total toxin A and B production in strain CD 630 in a dose-dependent manner
[3]; strain CD 630
  reduction of toxin levels (toxin A and B), normalized to controls: 55%
[3]; strain R20291
  reduction of toxin levels (toxin A and B), normalized to controls: 60%
[4]
  MIC: > 64 µg/mL
Dorea longicatena
  MIC50: 3.12 µg/mL (≈ 7.38 µM)
[5]; 4-hour treatment with 0.25×MIC
  reduction in motility and flagellar genes: up to 50%
[5]; CD 630, 0.5×MIC, 4 hours
  flgB expression decreased versus non-treated control: about 30%
  fliA expression attenuated versus non-treated control: about 60%
  fliC expression decreased versus non-treated control: about 80%
[5]; CD 630, sub-MIC (0.5×MIC), 4 hours, gluD control
  decrease overall in flagellar gene expression: 2-to-5 fold
[6]; 0.4× MIC
  C. diff growth (CFU/mL) and biomass at sub-MIC compared to control: reduced
[6]; 40× MIC, after 48 hours of treatment
  growth in early biofilms at supra-MIC: eradicated growth
[6]; C. diff. strain R20291, Minimum Biofilm Inhibitory Concentration
  MBIC: 4 µg/mL
[6]; Clostridioides difficile, C. diff. strain R20291, read-out: MIC
  MIC: 4 µg/mL (≈ 9.45 µM)
Longibaculum sp.
  MIC50: 50 µg/mL (≈ 118 µM)
